Laboratory results published in patent EP4610269A1, “UROKINASE PLASMINOGEN ACTIVATOR SURFACE RECEPTOR (UPAR) LIGANDS FOR DIAGNOSTIC OR THERAPEUTIC USE” (3B Pharmaceuticals GmbH, priority 2024, dated 2025).
Where two headings read alike, the source gives them in different places. *1 amine or outer side, *2 acyl side, *3 side chain or, on linkers, in order; H or OH if unused. Where a SMILES comes first, the peptide text is derived from it. Bridges are numbered along the chain shown (N, C = ends). [ ]: non-standard residue; d: D form. The star is where a group is joined. DOTA = O=C(O)CN1CCN(CC(=O)O)CCN(CC(=O)*)CCN(CC(=O)O)CC1; Hyp = O=C(O)[C@@H]1C[C@@H](O)CN1; Pentanoyl(4-Me) = CC(C)CCC(=O)*; X1 = O=C(CN1CCN([*:1])CC1)[*:2]; Cit = NC(=O)NCCC[C@H](N)C(=O)O; Aic = NC1(C(=O)O)Cc2ccccc2C1; Nva = CCC[C@H](N)C(=O)O; Pentanoyl = CCCCC(=O)*; NEtG = CCNCC(=O)O

Legend:
human uPAR (uPAR-Fc) = target: T1, human uPAR (uPAR-Fc) (Homo sapiens, UniProt Q03405); assay: Surface plasmon resonance (SPR) assay, single cycle kinetics; format: binding; conditions: pKD category for uPAR SPR activity assay, uPAR-Fc on Protein A-Chip, 25°C, read-out: pKD CAT (converted)
T1 construct: comprising amino acids Leu23-Arg303 according to UniProt entry Q03405.1; purchased R&D Systems 10378-UK-100
T1 sequence (Q03405 23-303): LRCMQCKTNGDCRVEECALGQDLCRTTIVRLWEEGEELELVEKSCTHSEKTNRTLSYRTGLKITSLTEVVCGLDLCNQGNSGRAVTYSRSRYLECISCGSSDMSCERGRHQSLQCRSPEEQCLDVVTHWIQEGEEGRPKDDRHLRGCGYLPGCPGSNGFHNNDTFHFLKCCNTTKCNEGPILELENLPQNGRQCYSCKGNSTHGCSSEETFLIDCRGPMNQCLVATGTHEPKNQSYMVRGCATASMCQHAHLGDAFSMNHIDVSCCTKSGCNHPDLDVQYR
Procedure: Surface plasmon resonance (SPR) is an optical technique used to measure molecular interactions in real time. SPR occur when plane-polarized light hits a metal film under total internal reflection conditions. SPR signal is directly dependent on the refractive index of the medium on the sensor chip. In an SPR experiment, one molecule (i.e. uPAR) is immobilized on a sensor chip and binding to a second molecule (i.e. test compounds) is measured under flow. The binding of the compound on the surface changes the refractive index. In responses the reflection angle changes as compounds bind and dissociate on the immobilized protein on the surface. This response is measured in resonance units (RU). The RUs are proportional to the number of molecules bound to the surface. […] Kinetic binding constants and equilibrium binding constants can be derived from the sensorgrams.
Surface plasmon resonance (SPR) studies were performed using a Biacore™ T200 or S200 SPR system (Cytiva, formerly GE Life Sciences) to assess binding of compounds to recombinant uPAR protein.
In this example recombinant protein comprising the extracellular domains of human uPAR (uPAR-Fc, R&D Systems, CAT 10378-UK-100, comprising amino acids Leu23-Arg303 according to UniProt entry Q03405.1 and Fc region of human IgG1 at the C-terminus) was immobilized on a Protein A-Chip (Cytiva, CAT 29127555) according to the supplier's instructions. uPAR-Fc was diluted in Running Buffer (10 mM HEPES, 150 mM NaCl, 50 µM EDTA, 0.1% DMSO, 0.05% Tween-20, pH 7.4) to a final concentration of 100 nM and then flushed over the Protein A-Chip to immobilized ~2000 RUs.
Stock solutions of test compounds were prepared by dissolving each compound in DMSO. DMSO stock solution were diluted 1: 1000 in Running Buffer without DMSO. Further sequential dilutions were made with Running Buffer containing 0.1% DMSO. SPR binding analyses were performed in Single Cycle Kinetic (SCK) mode at 25°C. Flow cell without immobilized uPAR-Fc served as reference flow cell. The chip was regenerated with 10 mM Glycine, pH 1,5 to remove the uPAR-Fc from the chip surface after each SCK run. After every three SCK measurements, a blank run with Running Buffer instead of test compound was included to correct for baseline drifts (double reference substraction method). Table 11: SPR protocol steps for SCK with uPAR-Fc immobilized on a Protein A-Chip.
For each test compound, SPR raw data sensorgrams were recorded using the Biacore™ T200 or S200 control software. Sensorgrams were processed and analyzed with the Biacore™ Insight Evaluation software. […] The reference subtracted sensorgram for each test compound was further corrected for baseline drift by subtracting the sensorgram of a reference subtracted blank run (Running Buffer only). The dissociation constant (KD) was calculated from the double reference subtracted sensorgrams using the 1:1 Langmuir binding model. The pKD value (negative decadic logarithm of dissociation constant) was calculated using Microsoft Excel.

[1] = target: T2, uPAR-expressing HEC-265 human endometrial adenocarcinoma cells (Homo sapiens, UniProt Q03405); assay: Competitive FACS binding assay; conditions: pIC50 category of FACS binding
T2 construct: Cell surface uPAR-expressing HEC-265 human endometrial adenocarcinoma cells; host or cells: HEC-265
T2 sequence (Q03405 23-335): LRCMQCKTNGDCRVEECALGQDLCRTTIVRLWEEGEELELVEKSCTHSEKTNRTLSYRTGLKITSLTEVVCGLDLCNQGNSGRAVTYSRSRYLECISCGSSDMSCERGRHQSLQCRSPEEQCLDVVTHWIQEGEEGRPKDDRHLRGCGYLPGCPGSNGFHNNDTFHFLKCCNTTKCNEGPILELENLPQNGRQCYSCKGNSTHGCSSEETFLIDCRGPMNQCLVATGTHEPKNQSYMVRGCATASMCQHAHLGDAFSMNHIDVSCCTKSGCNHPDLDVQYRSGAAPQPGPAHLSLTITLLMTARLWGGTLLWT
Procedure: In order to determine binding of compounds according to the present invention to uPAR-expressing cells, a competitive FACS binding assay was established.
Cell surface uPAR-expressing HEC-265 human endometrial adenocarcinoma cells (Japanese Collection of Research Bioresources, #JCRB1142) were cultured in MEM Eagle with stable glutamine (Pan Biotech, #P04-09500) including 15% fetal bovine serum (Pan Biotech, #P30-3306) and 100 U/ml penicillin and 100 µg/mL streptomycin (Pan Biotech, #P06-07100). Cells were detached with Cell Dissociation Buffer (Thermo Scientific, #13151014) and washed in FACS buffer (PBS (Pan Biotech, #P04-36500) including 1% BSA (SeraCare, #AP-4510-80). Cells were diluted in FACS buffer to a final concentration of 500.000 cells per ml and 200 µl of the cell suspension are transferred to a u-shaped non-binding 96-well plate (Greiner Bio-One, #650901).
For IC50 determination, cells were incubated with 10 nM Bio--Ttds--Ttds--Ttds--Ttds-D-Cha-FsrYLWS-NH2) in the presence of increasing concentrations of non-labeled test compounds at 4°C for 1 hour. Cells were washed twice in FACS buffer. An additional incubation step with 1 µg/mL APC-Streptavidin (Miltenyi; #130-106-791) in 50 µL FACS buffer for 30 minutes on ice was performed followed by two washes with FACS buffer. Cells were resuspended in 200 µl FACS buffer and analyzed in an Attune NxT flow cytometer. Median fluorescence intensities (APC channel) were calculated by Attune NxT software and plotted against peptide concentrations. Four parameter logistic (4PL) curve fitting and pIC50 calculations were performed using ActivityBase software.

| Kd (human uPAR (uPAR-Fc); single cycle kinetics) [nM] | IC50 [1] [nM] | Kd (human uPAR (uPAR-Fc)) [nM] | Structure (SMILES) |
| --- | --- | --- | --- |
| > 100 | ≥ 126 |  | CC[C@H](C)[C@@H]1NC(=O)[C@@H](C)NC(=O)[C@@H]2CCCN2C(=O)[C@H](Cc2ccccc2)NC(=O)[C@H](Cc2ccc(O)cc2)NC(=O)[C@H](CCCCNC(=O)CN2CCN(CC(=O)O)CCN(CC(=O)O)CCN(CC(=O)O)CC2)NC(=O)[C@@H](CC(=O)O)NC(=O)[C@@H](NC(=O)[C@H](CC(C)C)NC(=O)[C@H](CC(=O)O)NC(C)=O)CSSC[C@@H](C(N)=O)NC(=O)[C@H](CC(C)C)NC1=O [UPAR-392, Ac-Asp-Leu-[Cys-asp-Lys(DOTA)-Tyr-Phe-Pro-ala-Ile-Leu-Cys]-NH2] (Ac-DLC[dD]K(DOTA)YFP[dA]ILC-NH2; disulfide 3-12) |
|  | ≤ 10 | < 1.58 | CC[C@H](C)[C@@H]1NC(=O)[C@@H](C)NC(=O)[C@@H]2CCCN2C(=O)[C@H](Cc2ccccc2)NC(=O)[C@H](Cc2ccc(O)cc2)NC(=O)[C@H](CCC(N)=O)NC(=O)[C@H](CCCCNC(=O)CN2CCN(CC(=O)O)CCN(CC(=O)O)CCN(CC(=O)O)CC2)NC(=O)[C@@H](NC(=O)CCC(C)C)CSSC[C@@H](C(N)=O)NC(=O)[C@H](CC(C)C)NC1=O [UPAR-157, iHex-[Cys-Lys(DOTA)-Gln-Tyr-Phe-Pro-ala-Ile-Leu-Cys]-NH2] ({Pentanoyl(4-Me)}-CK(DOTA)QYFP[dA]ILC-NH2; disulfide 1-10) |
| 10 to 100 | 39.8 to 100 |  | CCNCC(=O)N[C@H]1CSSC[C@@H](C(N)=O)NC(=O)[C@H](CC(C)C)NC(=O)[C@H]([C@@H](C)CC)NC(=O)[C@@H](C)NC(=O)[C@@H]2CCCN2C(=O)[C@H](Cc2ccccc2)NC(=O)[C@H](Cc2ccc(O)cc2)NC(=O)[C@H](CCC(N)=O)NC(=O)[C@H](CCCNC(N)=O)NC1=O [UPAR-462, H-NEtg-[Cys-Cit-Gln-Tyr-Phe-Pro-ala-Ile-Leu-Cys]-NH2] (H-[NEtG]C[Cit]QYFP[dA]ILC-NH2; disulfide 2-11) |
|  | ≥ 126 | > 100 | CCCCC(=O)N[C@H]1CSSC[C@@H](C(N)=O)NC(=O)[C@H](CCC)NC(=O)[C@H]([C@@H](C)CC)NC(=O)CN2CCN(CC2)C(=O)[C@H](Cc2ccccc2)NC(=O)[C@H](Cc2ccc(O)cc2)NC(=O)[C@H](CCC(N)=O)NC(=O)[C@H](CCCNC(=N)N)NC1=O [UPAR-271, Pent-[Cys-Arg-Gln-Tyr-Phe-PPAc-Ile-Nva-Cys]-NH2] (Pentanoyl-CRQYF[X1]I[Nva]C-NH2; disulfide 1-9) |
| > 100 | ≥ 126 |  | CCCCC(=O)N[C@H]1CSSC[C@@H](C(N)=O)NC(=O)[C@H](CCC)NC(=O)[C@H]([C@@H](C)CC)NC(=O)[C@@H]2C[C@@H](O)CN2C(=O)[C@@H]2CCCN2C(=O)C2(Cc3ccccc3C2)NC(=O)[C@H](Cc2ccc(O)cc2)NC(=O)[C@H](CCCCNC(=O)CN2CCN(CC(=O)O)CCN(CC(=O)O)CCN(CC(=O)O)CC2)NC(=O)[C@H](CCCNC(N)=O)NC1=O [UPAR-417, Pent-[Cys-Cit-Lys(DOTA)-Tyr-Aic-Pro-Hyp-Ile-Nva-Cys]-NH2] (Pentanoyl-C[Cit]K(DOTA)Y[Aic]P[Hyp]I[Nva]C-NH2; disulfide 1-10) |
| < 1.58 |  |  | CCC[C@@H]1NC(=O)[C@H]([C@@H](C)CC)NC(=O)[C@@H]2C[C@@H](O)CN2C(=O)[C@@H]2CCCN2C(=O)[C@H](Cc2ccccc2)NC(=O)[C@H](Cc2ccc(O)cc2)NC(=O)[C@H](CCC(N)=O)NC(=O)[C@H](CCCNC(=N)N)NC(=O)[C@@H](NC(=O)[C@H](Cc2ccccc2)NC(C)=O)CSSC[C@@H](C(N)=O)NC1=O [UPAR-488, Ac-Phe-[Cys-Arg-Gln-Tyr-Phe-Pro-Hyp-Ile-Nva-Cys]-NH2] (Ac-FCRQYFP[Hyp]I[Nva]C-NH2; disulfide 2-11) |
